{
  "source": "patent US12186332B2",
  "about": "“Methods for overcoming WNT/beta-catenin anti-cancer resistance in leukemia stem cells” (STOWERS INSTITUTE FOR MEDICAL RESEARCH, priority 2019, dated 2025)",
  "key": {"pS^552-β-cat^+ LSCs": {"test_system": "pS^552-β-cat^+ LSCs", "assay": "Pilot clinical trial of low-dose DNR in relapsed/refractory adult AML", "format": "in vivo, human", "conditions": "low-dose DNR 6.75 mg/m^2 daily ×5; BM day 0 vs day 8", "excerpt": "This was registered at clinicaltrials.gov (identifier NCT02914977). All patients provided informed consent according to institutional guidelines. At least two prior induction attempts were required for fit patients with primary refractory leukemia; unfit or relapsed patients were allowed entry with one prior therapy. There was no limit on number of prior therapies. […] Exclusion criteria included presence of acute promyelocytic leukemia, CNS leukemia or total lifetime anthracycline exposure exceeding the equivalent of 900 mg/m^2 of DNR. Treatment consisted of bone marrow aspiration for correlative studies followed by one cycle of low dose DNR (6.75 mg/m^2×5 consecutive days, days 1-5) and second bone marrow aspiration on day 8. Effects on LSC population were measured by flow cytometry. Adverse events (AEs) and laboratory values were monitored for safety. This study is compliant with all relevant ethical regulations regarding research involving human participants and was approved by the Human Subjects Committee at the University of Kansas."}, "[1]": {"test_system": "Akt-enhanced β-catenin activity (TOP-Luc)", "assay": "HTS TOPFlash/FOPFlash luciferase reporter dose-response", "format": "cell-based", "conditions": "DNR dose-response (FIG. 13A)"}, "[2]": {"test_system": "blast cells, LSCs and HSPCs of leukemic Pten:β-cat^Act mice", "format": "in vivo", "conditions": "low-dose DNR with chemotherapy", "description": "Leukemic mice were treated with vehicle, chemotherapy, [Low]DXR (5×0.5 mg/kg), clinical DXR (1×20 mg/kg), or chemotherapy+[Low]DXR as described in FIG. S2.\nAverage frequency of each population (n≥6 per group) is shown.\nAbsolute number/femur±SD of each population (n≥6 per group) is shown.\nAt 10 days post-treatment, BM was analyzed by flow cytometry to determine frequency of blast cells. Average frequency±SD (n 6 per group). Note that this experiment used clinical dose (normal) or [Low]\nAlternatively, a single injection on day 1 of 0.8 or 2.5 μg/g of DXR-loaded nanoparticles (NanoDXR) was given with and without chemotherapy. At 10 days post-treatment, BM was analyzed by flow cytometry to determine frequency of LSCs. Shown is average frequency±SD (n 6 per group).\nAlternatively, a single injection on day 1 of 0.8 or 2.5 μg/g of DXR-loaded nanoparticles (NanoDXR) was given with and without chemotherapy. At 10 days post-treatment, BM was analyzed by flow cytometry to determine frequency of HSPCs. Shown is average frequency±SD (n 6 per group).\nWhole bone marrow was isolated from uninduced HSC-SCL-Cre^+ Pten^fx/fx βcat^fx(Exon3)/+ (Pn:β-cat^Act) mice and combined with an equal portion of Cre negative bone marrow from a littermate and transplanted into irradiated (10 Grays) B6.SJL-Ptprc^a Pepc^b/BoyJ (Ptprc) recipients.\nChemotherapy for the animal model consisted of Nelarabine (Selleck) and Dexamethasone (BioVision) administered daily for 5 days consecutively. 43.4 mg/ml Nelarabine was administered intravenously via the tail vain according to the formula: Body Weight (g)×5=volume to inject (μl), which yielded 217 mg/kg. 2.5 mg/ml Dexamethasone was injected intraperitoneally according to the formula: Body Weight (g)×4=volume to inject (μl), yielding 10 mg/kg. […] [Low] NanoDXR treatment used doxorubicin nanoparticles (Tran et al. 2014) administered as a single IV injection once per week on day 1 relative to above treatments using 0.8 mg/kg. Maintenance [Low] NanoDXR consisted of once per week injections of 0.4 mg/kg. Groups combining Nelarabine with Doxorubicin used a single injection containing both drugs. All drugs were solubilized in 45% (2-Hydroxypropyl)-p-cyclodextrin (HBC) or 0.9% NaCl.\nCells were collected from bone marrow (femur and tibia), spleen, peripheral blood, and thymus. For cell surface phenotyping, a lineage cocktail (Lin) was used including CD3 (for HSPC but not LSC analysis), CD4, CD8, Mac-1, Gr, B220, IgM, and Ter119 (eBioscience, San Diego, CA). Monoclonal antibodies against CD3 (separate fluorophore for LSC analysis), Sca-1, c-Kit, CD45.1, and CD45.2 were also used where indicated. Cell sorting and analysis were performed using an inFlux (BD), MoFlo (Dako, Ft. Collins, CO) and/or CyAn ADP (Dako, Ft. Collins, CO). Data analysis was performed using FlowJo software (Ashland, OR)."}},
  "data": [
    {"smiles": "COc1cccc2c1C(=O)c1c(O)c3c(c(O)c1C2=O)C[C@@](O)(C(C)=O)C[C@@H]3O[C@H]1C[C@H](N)[C@H](O)[C@H](C)O1", "note": "[DNR, Daunorubicin]", "values": [
      {"measurement": "patients with substantial reductions in pS552-β-cat+ LSCs", "setting": "pS^552-β-cat^+ LSCs", "result": "5/10"},
      {"measurement": "patients with unchanged pS552-β-cat+ LSCs", "setting": "pS^552-β-cat^+ LSCs", "result": "3/8"},
      {"measurement": "inhibition of pS552-β-catenin compared with DXR", "setting": "[1]", "result": "similarly inhibits pS^552-β-catenin"},
      {"measurement": "LSC, HSPC and blast cell frequency compared with low-dose doxorubicin", "setting": "[2]", "result": "performs similarly to low-dose doxorubicin"}
    ]}
  ]
}
